Reference: US20200131159A1, “POSITIVE ALLOSTERIC MODULATORS OF THE MUSCARINIC ACETYLCHOLINE RECEPTOR M1” (Vanderbilt University, priority 2018, published 2020)

Molecular target: T1, human mAChR M1 (Homo sapiens, UniProt P11229)
T1 construct: hM1 and hM4 cDNAs were purchased from Missouri S&T cDNA Resource; host or cells: CHO-K1 cells, stably transfected with Lipofectamine2000
T1 sequence (P11229 1-460): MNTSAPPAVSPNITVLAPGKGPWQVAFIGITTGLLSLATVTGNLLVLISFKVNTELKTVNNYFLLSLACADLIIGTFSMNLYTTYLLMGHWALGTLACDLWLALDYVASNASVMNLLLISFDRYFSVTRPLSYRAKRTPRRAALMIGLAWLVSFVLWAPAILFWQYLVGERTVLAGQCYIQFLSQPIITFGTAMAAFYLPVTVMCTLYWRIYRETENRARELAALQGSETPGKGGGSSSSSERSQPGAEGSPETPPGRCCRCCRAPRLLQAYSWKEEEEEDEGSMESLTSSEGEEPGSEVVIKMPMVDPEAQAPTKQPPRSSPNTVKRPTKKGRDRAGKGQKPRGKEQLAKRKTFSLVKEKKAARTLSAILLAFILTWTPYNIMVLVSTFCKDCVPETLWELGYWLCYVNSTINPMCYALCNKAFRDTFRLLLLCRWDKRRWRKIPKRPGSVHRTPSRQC
Experiment: mAChR M1 cell-based functional assay (calcium mobilization, PAM mode, EC20 acetylcholine)
Conditions: CHO-K1 cells expressing hM1, calcium flux (Fluo-4); for Emax: EC20 acetylcholine response; for EC50: concentration-dependent increase in the EC20 acetylcholine response
Description: Chinese hamster ovary (CHO-K1) cells stably expressing rat (r)M1 were purchased from the American Type Culture Collection and cultured according to their indicated protocol. CHO cells stably expressing human (h)M2, hM3, and hM5 were described previously (Levey, et al., 1991); hM1 and hM4 cDNAs were purchased from Missouri S&T cDNA Resource; rM4 cDNA was provided by T. I. Bonner (National Institutes of Health, Bethesda, Md.). rM2 and rM3 were cloned from a rat brain cDNA library and sequence verified. hM1, rM2, rM3, hM4, and rM4 cDNAs were used to stably transfect CHO-K1 cells purchased from the American Type Culture Collection using Lipofectamine2000. To make stable rM2, hM2, rM3, hM4, and rM4 cell lines for use in calcium mobilization assays, these cells also were stably transfected with a chimeric G-protein (Gqi5) (provided by B. R. Conklin, University of California, San Francisco) using Lipofectamine 2000. rM1, hM1, rM3, hM3, rM5, and hM5 cells were grown in Ham's F-12 medium containing 10% heat-inactivated fetal bovine serum (FBS), 20 mM HEPES, and 50 µg/mL G418 sulfate. rM2-Gqi5, hM2-Gqi5, and hM4-Gqi5 cells were grown in the same medium also containing 500 μg/mL Hygromycin B. Stable rM4-Gqi5 cells were grown in DMEM containing 10% heat-inactivated FBS, 20 mM HEPES, 400 μg/mL G418 sulfate, and 500 μg/mL Hygromycin B.
For high throughput measurement of agonist-evoked increases in intracellular calcium, CHO-K1 cells stably expressing muscarinic receptors were plated in growth medium lacking G418 and hygromycin at 15,000 cells/20 μL/well in Greiner 384-well black-walled, tissue culture (TC)-treated, clear-bottom plates (VWR). Cells were incubated overnight at 37° C. and 5% CO2. The next day, cells were washed using an ELX 405 (BioTek) with four washes (80 μL) of assay buffer then aspirated to 20 μL. Next, 20 μL of 16 μM Fluo-4/acetoxymethyl ester (Invitrogen, Carlsbad, Calif.) prepared as a 2.3 mM stock in DMSO and mixed in a 1:1 ratio with 10% (w/v) Pluronic F-127 and diluted in assay buffer was added to the wells and the cell plates were incubated for 50 min at 37° C. and 5% CO2. Dye was removed by washing with the ELX 405 (four 80 μL washes of assay buffer) then aspirated to 20 μL. Compound master plates were formatted in an 11 point CRC format (1:3 dilutions) in 100% DMSO with a starting concentration of 10 mM using the BRAVO liquid handler (Agilent). Test compound CRCs were then transferred to daughter plates (240 nL) using the Echo acoustic plate reformatter (Labcyte, Sunnyvale, Calif.) and then diluted into assay buffer (40 μL) to a 2× stock using a Thermo Fisher Combi (Thermo Fisher Scientific, Waltham, Mass.).
Calcium flux was measured using the Functional Drug Screening System (FDSS) 6000 (Hamamatsu Corporation, Tokyo, Japan) as an increase in the fluorescent static ratio. Compounds were applied to cells (20 μL, 2×) using the automated system of the FDSS 6000 at 4 s into the 300 s protocol and the data were collected at 1 Hz. […] Agonist activity was analyzed as a concentration-dependent increase in calcium mobilization upon compound addition. Emax values for agonist activity are expressed relative to the maximum for acetylcholine. Positive allosteric modulator activity was analyzed as a concentration-dependent increase in the EC20 acetylcholine response. Antagonist activity was analyzed as a concentration-dependent decrease in the […] acetylcholine response. Concentration-response curves were generated using a four-parameter logistical equation in XLfit curve fitting software (IDBS, Bridgewater, N.J.) for Excel (Microsoft, Redmond, Wash.) or Prism (GraphPad Software, Inc., San Diego, Calif.).
Activity (EC50 and Emax) was determined in the mAChR M1 cell-based functional assay as described above and the data are shown in Table 2. The compound numbers correspond to the compound numbers used in Table 1.

| Emax | EC50 | Compound |
| --- | --- | --- |
| 73% | 1710 nM | Cc1c(Cc2ccc(-n3cccn3)cc2)cc(C(=O)N[C@H]2CC[C@@H]2O)c2ncccc12 [compound 27, N-[(1S,2S)-2-hydroxycyclobutyl]-5-methyl-6-[(4-pyrazol-1-ylphenyl)methyl]quinoline-8-carboxamide] |
| 41% | 2250 nM | Cc1c(Cc2ccc(-n3cccn3)cc2)cc(C(=O)NC2CCOCC2)c2ncccc12 [compound 28, 5-methyl-6-[(4-pyrazol-1-ylphenyl)methyl]-N-tetrahydropyran-4-yl-quinoline-8-carboxamide] |
| 72% | 197 nM | Cc1c(Cc2ccc(-c3ccn(C)n3)nc2)cc(C(=O)N[C@H]2CCOC[C@@H]2O)c2ncccc12 [compound 29, N-[(3R,4S)-3-hydroxytetrahydropyran-4-yl]-5-methyl-6-[[6-(1-methylpyrazol-3-yl)-3-pyridyl]methyl]quinoline-8-carboxamide] |
| 72% | 356 nM | Cc1c(Cc2ccc(-c3ccn(C)n3)nc2)cc(C(=O)N[C@H]2CCCC[C@@H]2O)c2ncccc12 [compound 30, N-[(1S,2S)-2-hydroxycyclohexyl]-5-methyl-6-[[6-(1-methylpyrazol-3-yl)-3-pyridyl]methyl]quinoline-8-carboxamide] |
| 67% | 4390 nM | Cc1c(Cc2ccc(-c3ccn(C)n3)nc2)cc(C(=O)NC2CCOCC2)c2ncccc12 [compound 31, 5-methyl-6-[[6-(1-methylpyrazol-3-yl)-3-pyridyl]methyl]-N-tetrahydropyran-4-yl-quinoline-8-carboxamide] |
| 69% | 336 nM | Cc1nc(-c2ccc(Cc3cc(C(=O)N[C@H]4CCOC[C@@H]4O)c4ncccc4c3C)cc2)co1 [compound 32, N-[(3R,4S)-3-hydroxytetrahydropyran-4-yl]-5-methyl-6-[[4-(2-methyloxazol-4-yl)phenyl]methyl]quinoline-8-carboxamide] |
| 75% | 2040 nM | Cc1nc(-c2ccc(Cc3cc(C(=O)N[C@H]4CCCCC[C@@H]4O)c4ncccc4c3C)cc2)co1 [compound 33, N-[(1S,2S)-2-hydroxycycloheptyl]-5-methyl-6-[[4-(2-methyloxazol-4-yl)phenyl]methyl]quinoline-8-carboxamide] |
| 74% | 562 nM | Cc1nc(-c2ccc(Cc3cc(C(=O)N[C@H]4CCCC[C@@H]4O)c4ncccc4c3C)cc2)co1 [compound 34, N-[(1S,2S)-2-hydroxycyclohexyl]-5-methyl-6-[[4-(2-methyloxazol-4-yl)phenyl]methyl]quinoline-8-carboxamide] |
| 38% | 1370 nM | Cc1nc(-c2ccc(Cc3cc(C(=O)NC4CCOCC4)c4ncccc4c3C)cc2)co1 [compound 35, 5-methyl-6-[[4-(2-methyloxazol-4-yl)phenyl]methyl]-N-tetrahydropyran-4-yl-quinoline-8-carboxamide] |
